± gives the expanded uncertainty stated by the source.
Conditions: 293.15 K; 101.33 kPa; Crystal; Pycnometric method

molar volume: 0.0004982 ± 1e-05 m3/mol
Compound: C=CC1=C(C(=O)O)N2C(=O)[C@@H](NC(=O)/C(=N\OCC(=O)O)c3csc(N)n3)[C@H]2SC1.O.O.O [cefixime trihydrate]

Reference: the NIST ThermoML archive (doi:10.1021/je5000605)
